In patent publication US20110053773A1, “METHODS OF IMPROVING NUTRITIONAL VALUE OF PLANTS” (UNIVERSITY OF TENNESSEE RESEARCH FOUNDATION, priority 2009, published 2011):

Experiments:
basil 'Genovese' [1] = assay: Visual injury of basil after insecticide, fungicide, PGRs, safeners (Example 4)
Procedure: (§1) Greenhouse and laboratory studies were conducted to ascertain the tolerance and nutritional quality differences following postemergence applications of the insecticide chlorpyrifos, the fungicide chlorothalonil, the PGRs mepiquat-chloride and paclobutrazol, and the safeners napthalic anhydride and isoxadifen-ethyl on kale ‘Red Russian’ and basil ‘Genovese’. Visual injury was rated based on general phytotoxicity, chlorosis, and visual stunting and each measurement was based on a percent scale from 0 to 100 where 0 equals no visual response and 100 equals complete plant death. Kale and basil were both harvested approximately 4 weeks after treatments and plants were pooled over replicates for content analysis of crude protein, crude amino acid content, acid detergent fiber, neutral detergent fiber, total fatty acids, and/or key mineral content (including Na, Ca, P, Mg, K, Fe, Mn, Zn, and Cu). In addition, the amounts of key individual amino acids (aspartic acid, threonine, glutamic acid, proline, glycine, cysteine, valine, leucine, isoleucine, methionine, and lysine) and composite classifications of fatty acid (saturated fatty acids, monounsaturated fatty acids, polyunsaturated fatty acids) were also analyzed from these sub-samples for kale (Tables 10-14).

basil 'Genovese' [2] = assay: Content analysis of basil: protein, minerals (Example 4, Tables 10-11); format: in vivo; settings: 28 DA-A
Procedure: as §1

basil ‘Genovese’ = assay: Yield, fresh weight of basil after insecticide, fungicide, PGRs and safeners (Example 4, Table 10); format: in vivo; settings: DA-A, check 31.8
Procedure: as §1

[3] = 7 DA-A, rates g ai/ha: chlropyrifos 1120, chlorothalonil 2630, paclobutrazol 3.23, mepiquat-chloride 12.3, Isoxadifen 8, Napthalic anhydride 264, + NIS 0.25 % v/v
[4] = 7 DA-A, rates g ai/ha: chlropyrifos 3370, chlorothalonil 7900, paclobutrazol 9.7, mepiquat-chloride 37, Isoxadifen 16, Napthalic anhydride 527, + NIS 0.25 % v/v
[5] = 14 DA-A, rates g ai/ha: chlropyrifos 1120, chlorothalonil 2630, paclobutrazol 3.23, mepiquat-chloride 12.3, Isoxadifen 8, Napthalic anhydride 264, + NIS 0.25 % v/v
[6] = 14 DA-A, rates g ai/ha: chlropyrifos 3370, chlorothalonil 7900, paclobutrazol 9.7, mepiquat-chloride 37, Isoxadifen 16, Napthalic anhydride 527, + NIS 0.25 % v/v
[7] = 28 DA-A, rates g ai/ha: chlropyrifos 1120, chlorothalonil 2630, paclobutrazol 3.23, mepiquat-chloride 12.3, Isoxadifen 8, Napthalic anhydride 264, + NIS 0.25 % v/v
[8] = 28 DA-A, rates g ai/ha: chlropyrifos 3370, chlorothalonil 7900, paclobutrazol 9.7, mepiquat-chloride 37, Isoxadifen 16, Napthalic anhydride 527, + NIS 0.25 % v/v
[9] = rates g ai/ha: chlroprifos 3370, chlorothalonil 7900, paclobutrazol 9.7, mepiquat-chloride 37, Isoxadifen 16, Napthalic anhydride 527, + NIS 0.25 % v/v
[10] = rates g ai/ha: chlropyrifos 1120, chlorothalonil 2630, paclobutrazol 3.23, mepiquat-chloride 12.3, Isoxadifen 8, Napthalic anhydride 264, + NIS 0.25 % v/v
[11] = rates g ai/ha: chlropyrifos 3370, chlorothalonil 7900, paclobutrazol 9.7, mepiquat-chloride 37, Isoxadifen 16, Napthalic anhydride 527, + NIS 0.25 % v/v

`CCOC(=O)C1=NOC(c2ccccc2)(c2ccccc2)C1` [isoxadifen, isoxadifen-ethyl] was tested, and the “Phytotoxicity Chlorosis” value (basil 'Genovese' [1]; [3]) was 8%, the “Phytotoxicity General” value (basil 'Genovese' [1]; [3]) was 3% and the “Phytotoxicity Stunting” value (basil 'Genovese' [1]; [3]) was 2%. The “Phytotoxicity Chlorosis” value (basil 'Genovese' [1]; [4]) was 7%, the “Phytotoxicity General” value (basil 'Genovese' [1]; [4]) was 7% and the “Phytotoxicity Stunting” value (basil 'Genovese' [1]; [4]) was 7%. The “Phytotoxicity Chlorosis” value (basil 'Genovese' [1]; [5]) was 5%, the “Phytotoxicity General” value (basil 'Genovese' [1]; [5]) was 2% and the “Phytotoxicity Stunting” value (basil 'Genovese' [1]; [5]) was 5%. The “Phytotoxicity Chlorosis” value (basil 'Genovese' [1]; [6]) was 8%, the “Phytotoxicity General” value (basil 'Genovese' [1]; [6]) was 8% and the “Phytotoxicity Stunting” value (basil 'Genovese' [1]; [6]) was 10%. The “Phytotoxicity Chlorosis” value (basil 'Genovese' [1]; [7]) was 2%, the “Phytotoxicity General” value (basil 'Genovese' [1]; [7]) was 2% and the “Phytotoxicity Stunting” value (basil 'Genovese' [1]; [7]) was 5%. For the same molecule, the “Phytotoxicity Chlorosis” value (basil 'Genovese' [1]; [8]) was 0%, the “Phytotoxicity General” value (basil 'Genovese' [1]; [8]) was 7% and the “Phytotoxicity Stunting” value (basil 'Genovese' [1]; [8]) was 8%. For the same molecule, the “ADF, Percent Increase Over the Untreated Check (on a % dry matter basis)” value (basil 'Genovese' [2]; [9]) was 13 % check, the “Calcium, Percent Increase Over the Untreated Check (on a % dry matter basis)” value (basil 'Genovese' [2]; [9]) was 6 % check and the “Copper, Percent Increase Over the Untreated Check (on a % dry matter basis)” value (basil 'Genovese' [2]; [9]) was 0 % check. The “Iron, Percent Increase Over the Untreated Check (on a % dry matter basis)” value (basil 'Genovese' [2]; [9]) was 27 % check, the “Magnesium, Percent Increase Over the Untreated Check (on a % dry matter basis)” value (basil 'Genovese' [2]; [9]) was 12 % check and the “Manganese, Percent Increase Over the Untreated Check (on a % dry matter basis)” value (basil 'Genovese' [2]; [9]) was 118 % check. The “NDF, Percent Increase Over the Untreated Check (on a % dry matter basis)” value (basil 'Genovese' [2]; [9]) was 0 % check, the “Phosphorous, Percent Increase Over the Untreated Check (on a % dry matter basis)” value (basil 'Genovese' [2]; [9]) was 28 % check and the “Potassium, Percent Increase Over the Untreated Check (on a % dry matter basis)” value (basil 'Genovese' [2]; [9]) was 16 % check. For the same molecule, the “Protein, Percent Increase Over the Untreated Check (on a % dry matter basis)” value (basil 'Genovese' [2]; [9]) was 22 % check, the “Sodium, Percent Increase Over the Untreated Check (on a % dry matter basis)” value (basil 'Genovese' [2]; [9]) was 17 % check and the “Soluble protein, Percent Increase Over the Untreated Check (on a % dry matter basis)” value (basil 'Genovese' [2]; [9]) was 4 % check. The “Zinc, Percent Increase Over the Untreated Check (on a % dry matter basis)” value (basil 'Genovese' [2]; [9]) was 34 % check, the “ADF, Percent Increase Over the Untreated Check (on a % dry matter basis)” value (basil 'Genovese' [2]; [10]) was 6 % check and the “Calcium, Percent Increase Over the Untreated Check (on a % dry matter basis)” value (basil 'Genovese' [2]; [10]) was −2 % check. For the same molecule, the “Copper, Percent Increase Over the Untreated Check (on a % dry matter basis)” value (basil 'Genovese' [2]; [10]) was 0 % check, the “Iron, Percent Increase Over the Untreated Check (on a % dry matter basis)” value (basil 'Genovese' [2]; [10]) was 25 % check and the “Magnesium, Percent Increase Over the Untreated Check (on a % dry matter basis)” value (basil 'Genovese' [2]; [10]) was 9 % check. The “Manganese, Percent Increase Over the Untreated Check (on a % dry matter basis)” value (basil 'Genovese' [2]; [10]) was 10 % check, the “NDF, Percent Increase Over the Untreated Check (on a % dry matter basis)” value (basil 'Genovese' [2]; [10]) was 1 % check and the “Phosphorous, Percent Increase Over the Untreated Check (on a % dry matter basis)” value (basil 'Genovese' [2]; [10]) was 17 % check. For the same molecule, the “Potassium, Percent Increase Over the Untreated Check (on a % dry matter basis)” value (basil 'Genovese' [2]; [10]) was 17 % check, the “Protein, Percent Increase Over the Untreated Check (on a % dry matter basis)” value (basil 'Genovese' [2]; [10]) was 14 % check and the “Sodium, Percent Increase Over the Untreated Check (on a % dry matter basis)” value (basil 'Genovese' [2]; [10]) was 27 % check. For the same molecule, the “Soluble protein, Percent Increase Over the Untreated Check (on a % dry matter basis)” value (basil 'Genovese' [2]; [10]) was 12 % check, the “Zinc, Percent Increase Over the Untreated Check (on a % dry matter basis)” value (basil 'Genovese' [2]; [10]) was 38 % check and the “Yield Fresh weight” value (basil ‘Genovese’; [10]) was 34.2 grams. The “Yield Fresh weight” value (basil ‘Genovese’; [11]) was 36.9 grams.
For `O=C1OC(=O)c2cccc3cccc1c23` [napthalic anhydride], the “Phytotoxicity Chlorosis” value (basil 'Genovese' [1]; [3]) was 0%, the “Phytotoxicity General” value (basil 'Genovese' [1]; [3]) was 5% and the “Phytotoxicity Stunting” value (basil 'Genovese' [1]; [3]) was 0%. The “Phytotoxicity Chlorosis” value (basil 'Genovese' [1]; [4]) was 2%, the “Phytotoxicity General” value (basil 'Genovese' [1]; [4]) was 7% and the “Phytotoxicity Stunting” value (basil 'Genovese' [1]; [4]) was 5%. The “Phytotoxicity Chlorosis” value (basil 'Genovese' [1]; [5]) was 3%, the “Phytotoxicity General” value (basil 'Genovese' [1]; [5]) was 7% and the “Phytotoxicity Stunting” value (basil 'Genovese' [1]; [5]) was 0%. The “Phytotoxicity Chlorosis” value (basil 'Genovese' [1]; [6]) was 2%, the “Phytotoxicity General” value (basil 'Genovese' [1]; [6]) was 10% and the “Phytotoxicity Stunting” value (basil 'Genovese' [1]; [6]) was 7%. For the same molecule, the “Phytotoxicity Chlorosis” value (basil 'Genovese' [1]; [7]) was 2%, the “Phytotoxicity General” value (basil 'Genovese' [1]; [7]) was 5% and the “Phytotoxicity Stunting” value (basil 'Genovese' [1]; [7]) was 0%. For the same molecule, the “Phytotoxicity Chlorosis” value (basil 'Genovese' [1]; [8]) was 2%, the “Phytotoxicity General” value (basil 'Genovese' [1]; [8]) was 3% and the “Phytotoxicity Stunting” value (basil 'Genovese' [1]; [8]) was 7%. The “ADF, Percent Increase Over the Untreated Check (on a % dry matter basis)” value (basil 'Genovese' [2]; [9]) was 4 % check, the “Calcium, Percent Increase Over the Untreated Check (on a % dry matter basis)” value (basil 'Genovese' [2]; [9]) was −8 % check and the “Copper, Percent Increase Over the Untreated Check (on a % dry matter basis)” value (basil 'Genovese' [2]; [9]) was −17 % check. The “Iron, Percent Increase Over the Untreated Check (on a % dry matter basis)” value (basil 'Genovese' [2]; [9]) was 0 % check, the “Magnesium, Percent Increase Over the Untreated Check (on a % dry matter basis)” value (basil 'Genovese' [2]; [9]) was −6 % check and the “Manganese, Percent Increase Over the Untreated Check (on a % dry matter basis)” value (basil 'Genovese' [2]; [9]) was −16 % check. The “NDF, Percent Increase Over the Untreated Check (on a % dry matter basis)” value (basil 'Genovese' [2]; [9]) was 1 % check, the “Phosphorous, Percent Increase Over the Untreated Check (on a % dry matter basis)” value (basil 'Genovese' [2]; [9]) was −9 % check and the “Potassium, Percent Increase Over the Untreated Check (on a % dry matter basis)” value (basil 'Genovese' [2]; [9]) was −23 % check. The “Protein, Percent Increase Over the Untreated Check (on a % dry matter basis)” value (basil 'Genovese' [2]; [9]) was 3 % check, the “Sodium, Percent Increase Over the Untreated Check (on a % dry matter basis)” value (basil 'Genovese' [2]; [9]) was −8 % check and the “Soluble protein, Percent Increase Over the Untreated Check (on a % dry matter basis)” value (basil 'Genovese' [2]; [9]) was 31 % check. For the same molecule, the “Zinc, Percent Increase Over the Untreated Check (on a % dry matter basis)” value (basil 'Genovese' [2]; [9]) was −13 % check, the “ADF, Percent Increase Over the Untreated Check (on a % dry matter basis)” value (basil 'Genovese' [2]; [10]) was 13 % check and the “Calcium, Percent Increase Over the Untreated Check (on a % dry matter basis)” value (basil 'Genovese' [2]; [10]) was 2 % check. For the same molecule, the “Copper, Percent Increase Over the Untreated Check (on a % dry matter basis)” value (basil 'Genovese' [2]; [10]) was 0 % check, the “Iron, Percent Increase Over the Untreated Check (on a % dry matter basis)” value (basil 'Genovese' [2]; [10]) was 14 % check and the “Magnesium, Percent Increase Over the Untreated Check (on a % dry matter basis)” value (basil 'Genovese' [2]; [10]) was 12 % check. For the same molecule, the “Manganese, Percent Increase Over the Untreated Check (on a % dry matter basis)” value (basil 'Genovese' [2]; [10]) was 37 % check, the “NDF, Percent Increase Over the Untreated Check (on a % dry matter basis)” value (basil 'Genovese' [2]; [10]) was 2 % check and the “Phosphorous, Percent Increase Over the Untreated Check (on a % dry matter basis)” value (basil 'Genovese' [2]; [10]) was 22 % check. The “Potassium, Percent Increase Over the Untreated Check (on a % dry matter basis)” value (basil 'Genovese' [2]; [10]) was −4 % check, the “Protein, Percent Increase Over the Untreated Check (on a % dry matter basis)” value (basil 'Genovese' [2]; [10]) was 32 % check and the “Sodium, Percent Increase Over the Untreated Check (on a % dry matter basis)” value (basil 'Genovese' [2]; [10]) was 33 % check. For the same molecule, the “Soluble protein, Percent Increase Over the Untreated Check (on a % dry matter basis)” value (basil 'Genovese' [2]; [10]) was 4 % check, the “Zinc, Percent Increase Over the Untreated Check (on a % dry matter basis)” value (basil 'Genovese' [2]; [10]) was 47 % check and the “Yield Fresh weight” value (basil ‘Genovese’; [10]) was 41.5 grams. The “Yield Fresh weight” value (basil ‘Genovese’; [11]) was 24.5 grams.
